For assay [1], the target named is Ubiquitin thioesterase OTUB1 (Homo sapiens, UniProt Q96FW1). Kind of assay: Inhibition of OTUB1 in human NCI-H1975 cells assessed as reduction in protein level at 500 nM measured for 24 hrs by immunoblotting analysis. The assay is classed as cell-based.
Another assay concerns NCI-H1975. Description: Antitumor activity against human NCI-H1975 cells xenografted in BALB/c nude mouse model assessed as reduction of tumor burden at 5 mg/kg, ip qd for 2 weeks. The assay is classed as functional, organism-based.

The source made the active and inactive calls. No cut-off for these calls is given here.

Sequence of Ubiquitin thioesterase OTUB1 (Q96FW1 whole entry): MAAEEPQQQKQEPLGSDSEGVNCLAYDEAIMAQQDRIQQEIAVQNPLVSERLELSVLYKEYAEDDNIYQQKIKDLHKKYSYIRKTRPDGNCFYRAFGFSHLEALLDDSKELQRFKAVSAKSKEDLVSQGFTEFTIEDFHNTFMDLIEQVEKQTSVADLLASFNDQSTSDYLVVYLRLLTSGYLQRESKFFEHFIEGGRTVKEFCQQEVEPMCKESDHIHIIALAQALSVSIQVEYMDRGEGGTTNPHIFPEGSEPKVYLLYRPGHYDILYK

As for `CN1CC[C@@H](Oc2ccc(F)c(-c3nc4c(o3)C(=O)c3ccccc3C4=O)c2Cl)C1`, the inhibition result in assay [1] was “Active”. Also, the result in the assay with NCI-H1975 was Active.

(Values after ChEMBL document CHEMBL5108067, “Discovery of Potent OTUB1/USP8 Dual Inhibitors Targeting Proteostasis in Non-Small-Cell Lung Cancer” (J Med Chem, 2022).)
